Data from patent US20250346597A1, “CONDENSED HETEROCYCLIC COMPOUNDS AS INHIBITOR OF DIACYLGLYCEROL KINASES” (BEONE MEDICINES I GMBH, priority 2023, published 2025).

Assays:
DGKζ = DGKζ (Homo sapiens (Human), UniProt Q13574); assay: Biochemical DGK IC50 assay (ADP-Glo, lipid micelle substrate), DGKζ; settings: full length DGKζ 0.5 nM, ATP 140 μM, DAG 80 μM
Procedure: (§1) Enzymatic reactions of DGKζ, DGKα and DGKδ were performed using ADP-Glo assay with lipid micelle substrate. […] Full length DGKα (D21-10BG, SignalChem) and full length DGKδ (D23-10G, SignalChem) were purchased. Lipid micelle was prepared by dissolving DAG (Sigma, 317505-10MG) and PS (Sigma, P7769-100MG) with chloroform which was furtherly removed by rotary evaporation. The resulted product was resuspended in buffer containing 25 mM HEPES pH 7.0, 0.5 mM EDTA and 160 mM Octyl P-D glucopyranoside by vigorous mixing and ultrasonic (IID, Scientz).
(§2) The inhibition activities testing for the compound disclosed herein were carried out at room temperature in assay buffer containing 50 mM HEPES, 10 mM MgCl2, 0.01% BSA, 0.1 mM Na3VO4, 0.005% Tween-20 and 0.01 mM CaCl2. Compounds in DMSO were dispensed into wells of a black 384 well plate (Corning 4514) using D300e digital dispenser (Tecan). […] 3 μL 2× enzyme solution was added to wells. […] After 1 hour reaction, 5 μL ADP-Glo reagent (Promga V9101) was added and incubated for 40 minutes. 10 μL Kinase Detection reagent was added and incubated for 30 minutes. Luminescence was measured on a microplate reader (PHERAstar FSX, BMG labtech). The IC50s are calculated based on inhibition of enzyme activity in the presence of increasing concentrations of compounds.
Human His-TEV-DGK-zeta-pFastBac1 and human baculovirus samples was generated using the Bac-to-Bac baculovirus expression system (Invitrogen) according to the manufacturer's protocol. The DNA used for expression of DGK-zeta, have SEQ ID Nos: 1. Baculovirus amplification was achieved using infected SF9 cells at 1:2000 virus/cells ratios, and grown for 96 hours at 27° C. post-transfected.
The expression scaled up for each protein was carried out in the […] from CORNING. 4 L of 3×10^6 cells/mL Sf9 cells (Expression System, Invitrogen) grown in SF900™ II SFM insect medium (Expression System) was infected with virus stock at 1:200 virus/cells ratio, and grown for 48 hours at 27° C. post-transfection. The infected cell culture was harvested by centrifugation at 6000 rpm for 15 min 4° C. in a SORVALL LYNX6000 centrifuge. The cell pellets were stored at −80° C.
Full length human DGKζ produced as described above, was purified from Sf9 baculovirus-infected insect cell paste. The cells were lysed using sonication method, and the lysates were clarified by centrifugation.

DGKα = DGKα (Homo sapiens (Human), UniProt P23743); assay: Biochemical DGK IC50 assay (ADP-Glo, lipid micelle substrate), DGKα; settings: full length DGKα […], ATP 140 μM, DAG 80 μM; note: full length DGKα 7.5 nM
Chain of DGKα (P23743 whole entry): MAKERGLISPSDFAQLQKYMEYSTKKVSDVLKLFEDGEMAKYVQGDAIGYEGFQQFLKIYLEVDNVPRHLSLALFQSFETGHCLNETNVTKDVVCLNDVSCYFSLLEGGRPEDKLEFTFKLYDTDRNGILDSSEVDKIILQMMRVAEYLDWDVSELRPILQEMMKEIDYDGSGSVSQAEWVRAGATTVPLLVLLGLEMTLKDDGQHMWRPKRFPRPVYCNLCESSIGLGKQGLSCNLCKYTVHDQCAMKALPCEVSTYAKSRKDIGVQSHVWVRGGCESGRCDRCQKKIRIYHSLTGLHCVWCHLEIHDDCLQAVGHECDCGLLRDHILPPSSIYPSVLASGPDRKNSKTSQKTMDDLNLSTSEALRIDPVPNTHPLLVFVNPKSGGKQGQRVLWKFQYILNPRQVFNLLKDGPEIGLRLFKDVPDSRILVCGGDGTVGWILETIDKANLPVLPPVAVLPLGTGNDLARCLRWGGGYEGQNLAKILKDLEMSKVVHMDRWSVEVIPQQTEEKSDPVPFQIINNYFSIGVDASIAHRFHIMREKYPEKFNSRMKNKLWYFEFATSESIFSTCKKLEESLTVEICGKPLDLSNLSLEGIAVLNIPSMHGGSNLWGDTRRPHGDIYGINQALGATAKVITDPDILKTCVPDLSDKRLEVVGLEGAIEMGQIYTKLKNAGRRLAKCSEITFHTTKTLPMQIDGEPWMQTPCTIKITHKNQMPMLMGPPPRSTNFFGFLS
Procedure: as §1, §2

Chain of DGKζ (Q13574 other isoform, or with tags, fused parts or gaps): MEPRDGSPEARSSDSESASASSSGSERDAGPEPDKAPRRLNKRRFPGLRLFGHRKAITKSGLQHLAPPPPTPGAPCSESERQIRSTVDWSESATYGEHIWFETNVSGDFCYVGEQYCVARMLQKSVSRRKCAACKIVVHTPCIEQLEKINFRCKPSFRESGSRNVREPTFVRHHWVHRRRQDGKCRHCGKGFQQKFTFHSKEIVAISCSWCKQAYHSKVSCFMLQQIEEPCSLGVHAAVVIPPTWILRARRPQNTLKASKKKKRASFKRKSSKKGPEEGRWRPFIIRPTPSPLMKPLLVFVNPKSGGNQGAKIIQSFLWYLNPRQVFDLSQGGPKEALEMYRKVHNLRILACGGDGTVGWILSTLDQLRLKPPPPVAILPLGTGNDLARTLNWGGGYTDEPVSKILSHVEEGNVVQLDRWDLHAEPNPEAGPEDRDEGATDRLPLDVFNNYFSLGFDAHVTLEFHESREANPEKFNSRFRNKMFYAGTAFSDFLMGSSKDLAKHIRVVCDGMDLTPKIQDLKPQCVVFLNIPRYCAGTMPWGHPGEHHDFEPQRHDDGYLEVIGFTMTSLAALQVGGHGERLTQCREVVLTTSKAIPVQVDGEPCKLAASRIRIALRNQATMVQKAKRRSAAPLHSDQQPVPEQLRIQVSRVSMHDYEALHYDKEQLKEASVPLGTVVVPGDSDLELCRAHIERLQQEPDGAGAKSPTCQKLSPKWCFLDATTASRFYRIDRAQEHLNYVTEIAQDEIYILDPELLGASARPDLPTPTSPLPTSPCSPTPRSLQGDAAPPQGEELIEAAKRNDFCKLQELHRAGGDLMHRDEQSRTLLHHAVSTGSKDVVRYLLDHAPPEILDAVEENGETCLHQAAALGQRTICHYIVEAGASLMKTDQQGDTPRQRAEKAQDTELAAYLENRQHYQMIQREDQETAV

| SMILES | IC50 (DGKζ) | IC50 (DGKα) |
| --- | --- | --- |
| CC[C@H]1CN(C(C)c2ccc3scnc3c2F)[C@H](CC)CN1c1cc(=O)n(C)c2cn(CC#N)nc12 (single isomer, unassigned) [Compound A110a] | 31 nM | 469 nM |
| CC[C@H]1CN(C(C)c2ccc3scnc3c2F)[C@H](CC)CN1c1cc(=O)n(C)c2cn(CC#N)nc12 (single isomer, unassigned) [Compound A110b] | 1720 nM | 10500 nM |
| CC#CCn1cc2c(n1)c(N1C[C@@H](CC)N(C(C)c3nc4ccccc4nc3C)C[C@@H]1C)cc(=O)n2C (single isomer, unassigned) [Compound A111a] | > 10000 nM | 2540 nM |
| CC#CCn1cc2c(n1)c(N1C[C@@H](CC)N(C(C)c3nc4ccccc4nc3C)C[C@@H]1C)cc(=O)n2C (single isomer, unassigned) [Compound A111b] | 55 nM | 1250 nM |
| CC#CCn1cc2c(n1)c(N1C[C@@H](CC)N(C(C)c3ccc4ncsc4c3)C[C@@H]1C)cc(=O)n2C (single isomer, unassigned) [Compound A112a] | 78 nM | 65 nM |
| CC#CCn1cc2c(n1)c(N1C[C@@H](CC)N(C(C)c3ccc4ncsc4c3)C[C@@H]1C)cc(=O)n2C (single isomer, unassigned) [Compound A112b] | > 10000 nM | 497 nM |
| CC#CCn1cc2c(n1)c(N1C[C@@H](CC)N(C(C)c3ccc4nc(C)sc4c3)C[C@@H]1CC)cc(=O)n2C (single isomer, unassigned) [Compound A114a] | 83 nM | 32 nM |
| CC#CCn1cc2c(n1)c(N1C[C@@H](CC)N(C(C)c3ccc4nc(C)sc4c3)C[C@@H]1CC)cc(=O)n2C (single isomer, unassigned) [Compound A114b] | 3200 nM | 391 nM |
| CC#CCn1cc2c(n1)c(N1C[C@@H](CC)N(C(C)c3ccc4nc(C)sc4c3)C[C@@H]1C)cc(=O)n2C (single isomer, unassigned) [Compound A115a] | 431 nM | 269 nM |
| CC#CCn1cc2c(n1)c(N1C[C@@H](CC)N(C(C)c3ccc4nc(C)sc4c3)C[C@@H]1C)cc(=O)n2C (single isomer, unassigned) [Compound A115b] | 6490 nM | 1250 nM |
| CC#CCn1cc2c(n1)c(N1C[C@@H](CC)N(C(C)c3ccc4nc(C)sc4c3F)C[C@@H]1C)cc(=O)n2C (single isomer, unassigned) [Compound A116a] | 181 nM | 2330 nM |
| CC#CCn1cc2c(n1)c(N1C[C@@H](CC)N(C(C)c3ccc4nc(C)sc4c3F)C[C@@H]1C)cc(=O)n2C (single isomer, unassigned) [Compound A116b] | > 10000 nM | 21000 nM |
| CC[C@H]1CN(C(C)c2ccc3ncsc3n2)[C@H](CC)CN1c1nc(=O)n(C)c2cn(CC#N)nc12 (single isomer, unassigned) [Compound A126a] | 1320 nM | 1370 nM |
| CC[C@H]1CN(C(C)c2ccc3ncsc3n2)[C@H](CC)CN1c1nc(=O)n(C)c2cn(CC#N)nc12 (single isomer, unassigned) [Compound A126b] | 51 nM | 93 nM |
| CC[C@H]1CN(C(C)c2ccc(C3CC3)nc2)[C@H](CC)CN1c1nc(=O)n(C)c2cn(CC#N)nc12 (single isomer, unassigned) [Compound A127a] | 71 nM | 357 nM |
| CC[C@H]1CN(C(C)c2ccc(C3CC3)nc2)[C@H](CC)CN1c1nc(=O)n(C)c2cn(CC#N)nc12 (single isomer, unassigned) [Compound A127b] | 3280 nM | 3360 nM |
| CC[C@H]1CN(C(C)c2cc3sc(C)nc3cc2F)[C@H](CC)CN1c1nc(=O)n(C)c2cn(CC#N)nc12 (single isomer, unassigned) [Compound A128a] | 60 nM | 375 nM |
| CC[C@H]1CN(C(C)c2cc3sc(C)nc3cc2F)[C@H](CC)CN1c1nc(=O)n(C)c2cn(CC#N)nc12 (single isomer, unassigned) [Compound A128b] | 694 nM | 4480 nM |

| SMILES | IC50 (DGKζ) | IC50 (DGKα) |
| --- | --- | --- |
| CC[C@H]1CN(C(C)c2ccc3nc(C)sc3n2)[C@H](CC)CN1c1nc(=O)n(C)c2cn(CC#N)nc12 (single isomer, unassigned) [Compound A129a] | 626 nM | 2100 nM |
| CC[C@H]1CN(C(C)c2ccc3nc(C)sc3n2)[C@H](CC)CN1c1nc(=O)n(C)c2cn(CC#N)nc12 (single isomer, unassigned) [Compound A129b] | 45 nM | 192 nM |
| CC[C@H]1CN(C(C)c2ccc3nc(C)sc3n2)[C@H](CC)CN1c1cc(=O)n(C)c2cn(CC#N)nc12 (single isomer, unassigned) [Compound A133a] | 1520 nM | 3280 nM |
| CC[C@H]1CN(C(C)c2ccc3nc(C)sc3n2)[C@H](CC)CN1c1cc(=O)n(C)c2cn(CC#N)nc12 (single isomer, unassigned) [Compound A133b] | 24 nM | 61 nM |
| [2H]C([2H])([2H])n1c(=O)cc(N2C[C@@H](CC)N(C(C)c3ccc4nc(C)sc4n3)C[C@@H]2CC)c2nn(CC#N)cc21 (single isomer, unassigned) [Compound A134a] | 3920 nM | 3390 nM |
| [2H]C([2H])([2H])n1c(=O)cc(N2C[C@@H](CC)N(C(C)c3ccc4nc(C)sc4n3)C[C@@H]2CC)c2nn(CC#N)cc21 (single isomer, unassigned) [Compound A134b] | 22 nM | 108 nM |
| CCC(c1ccc(C(F)(F)F)cc1)N1C[C@H](CC)N(c2cc(=O)n(C)c3cn(CC#N)nc23)C[C@H]1CC (single isomer, unassigned) [Compound A135a] | 96 nM | 86 nM |
| CCC(c1ccc(C(F)(F)F)cc1)N1C[C@H](CC)N(c2cc(=O)n(C)c3cn(CC#N)nc23)C[C@H]1CC (single isomer, unassigned) [Compound A135b] | 3750 nM | 483 nM |
| CC#CCn1cc2c(n1)c(N1C[C@@H](CC)N(C(C)c3ccc4nc(C)sc4c3F)C[C@@H]1CC)cc(=O)n2C (single isomer, unassigned) [Compound A138a] | 143 nM | 311 nM |
| CC#CCn1cc2c(n1)c(N1C[C@@H](CC)N(C(C)c3ccc4nc(C)sc4c3F)C[C@@H]1CC)cc(=O)n2C (single isomer, unassigned) [Compound A138b] | 3280 nM | 2040 nM |
| CC[C@H]1CN(C(C)c2ccc3nc(C)sc3n2)[C@H](CC)CN1c1c(C#N)c(=O)n(C)c2cn(CC#N)nc12 (single isomer, unassigned) [Compound A140a] | 3380 nM | 840 nM |
| CC[C@H]1CN(C(C)c2ccc3nc(C)sc3n2)[C@H](CC)CN1c1c(C#N)c(=O)n(C)c2cn(CC#N)nc12 (single isomer, unassigned) [Compound A140b] | 45 nM | 93 nM |
| CC#CCn1cc2c(n1)c(N1C[C@@H](CC)N(C(C)c3ccc4sc(C)nc4c3F)C[C@@H]1CC)cc(=O)n2C (single isomer, unassigned) [Compound A141a] | 17.6 nM | 1390 nM |
| CC#CCn1cc2c(n1)c(N1C[C@@H](CC)N(C(C)c3ccc4sc(C)nc4c3F)C[C@@H]1CC)cc(=O)n2C (single isomer, unassigned) [Compound A141b] | 641 nM | 6190 nM |
| [2H]C([2H])([2H])C(c1ccc2nc(C)sc2n1)N1C[C@H](CC)N(c2cc(=O)n(C([2H])([2H])[2H])c3cn(CC#N)nc23)C[C@H]1CC (single isomer, unassigned) [Compound A142a] | 1350 nM | 1580 nM |
| [2H]C([2H])([2H])C(c1ccc2nc(C)sc2n1)N1C[C@H](CC)N(c2cc(=O)n(C([2H])([2H])[2H])c3cn(CC#N)nc23)C[C@H]1CC (single isomer, unassigned) [Compound A142b] | 20 nM | 108 nM |
| CC[C@H]1CN(C(C)c2ccc3nc(COC)sc3n2)[C@H](CC)CN1c1cc(=O)n(C)c2cn(CC#N)nc12 (single isomer, unassigned) [Compound A143a] | 2150 nM | 3180 nM |
| CC[C@H]1CN(C(C)c2ccc3nc(COC)sc3n2)[C@H](CC)CN1c1cc(=O)n(C)c2cn(CC#N)nc12 (single isomer, unassigned) [Compound A143b] | 39 nM | 153 nM |
